Source: PubChem BioAssay (NCI)
Values joined by “and” are separate entries in the source; they are usually repeats but may differ in a detail not shown here. Equal entries are not always repeated.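 48-hour exposure; five concentrations; linearly interpolated endpoints. The concentration for 50% growth inhibition is given as GI50. TGI: concentration producing complete growth inhibition.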

Tests used:
Assay in all cases: NCI anticancer screen, dose series, 48 h
[1] = tested on: CCRF-CEM leukemia
[2] = tested on: COLO 205 colon
[3] = tested on: HCT-116 colon
[4] = tested on: K-562 leukemia
[5] = tested on: LOX IMVI melanoma
[6] = tested on: MDA-MB-231 breast
[7] = tested on: OVCAR-3 ovarian
[8] = tested on: RPMI-8226 leukemia
[9] = tested on: SN12C renal
[10] = tested on: UO-31 renal

CCCCCCCCCCCC/C=C\CC[C@@H](O)[C@H](O)CC[C@H](O)[C@@H]1CC[C@@H](CCCCCCCC2=C[C@H](C)OC2=O)O1
GI50 [1]: 6820 nM | TGI [1]: > 100000 nM | GI50 [2]: 7210 nM | TGI [2]: 8360 nM and 22900 nM | GI50 [3]: 231 nM | TGI [3]: 27100 nM | TGI [4]: 30000 nM | GI50 [5]: 3550 nM | TGI [5]: 4840 nM and 32300 nM | GI50 [6]: 12400 nM | TGI [6]: 35300 nM | GI50 [7]: 434 nM | TGI [7]: 6640 nM and 18700 nM | GI50 [8]: 1430 nM | TGI [8]: 3870 nM | GI50 [9]: 13000 nM | TGI [9]: 31000 nM | GI50 [10]: 12400 nM | TGI [10]: 9260 nM and 41900 nM

O=[N+]([O-])c1ccccc1N=Nc1c(O)[nH]c2c(Cl)cccc12
TGI [1]: > 100000 nM | TGI [2]: > 100000 nM | TGI [3]: > 66600 nM | TGI [4]: > 100000 nM | TGI [5]: 44100 nM | TGI [6]: 23400 nM | TGI [7]: > 85300 nM | TGI [8]: 96200 nM | TGI [9]: > 57700 nM | TGI [10]: > 67200 nM

CC1(C)CC(O)CC(C)(C)N1O
TGI [1]: > 100000 nM | TGI [2]: > 100000 nM | TGI [3]: > 100000 nM | TGI [4]: > 100000 nM | GI50 [5]: > 100000 nM | TGI [5]: > 100000 nM | TGI [6]: > 100000 nM | TGI [7]: > 100000 nM | TGI [8]: > 100000 nM | TGI [9]: > 100000 nM | TGI [10]: > 100000 nM

Nc1ccc(CC[C@H]2CCC/C=C/[C@@H]3C[C@H](O)C[C@H]3[C@H](O)/C=C/C(=O)O2)cc1
GI50 [1]: 43.7 nM | TGI [1]: > 64900 nM | GI50 [2]: 18.8 nM | TGI [2]: 34 nM | GI50 [3]: 31.4 nM | TGI [3]: 114 nM | GI50 [4]: 43 nM | TGI [4]: > 100000 nM | GI50 [5]: 23.1 nM | TGI [5]: 56.7 nM | GI50 [6]: 21.2 nM | TGI [6]: 42.1 nM | GI50 [7]: 28.2 nM | TGI [7]: 76.9 nM | GI50 [8]: 32.2 nM | TGI [8]: 121 nM | GI50 [9]: 63.9 nM | TGI [9]: > 100000 nM | GI50 [10]: 27.6 nM | TGI [10]: 2340 nM

[O]=[Sn]([CH]1CCCCC1)[CH]1CCCCC1
GI50 [1]: 48.8 nM | TGI [1]: 774 nM | GI50 [2]: 249 nM | TGI [2]: 731 nM | GI50 [3]: 152 nM | TGI [3]: 320 nM | GI50 [4]: 117 nM | GI50 [5]: 123 nM | TGI [5]: 297 nM | GI50 [6]: 280 nM | TGI [6]: 1040 nM | GI50 [7]: 203 nM | TGI [7]: 549 nM | GI50 [8]: 188 nM | TGI [8]: 718 nM | GI50 [9]: 315 nM | TGI [9]: 1230 nM | GI50 [10]: 293 nM | TGI [10]: 1080 nM

COc1ccc2nc3ccccc3c(NCCNCCO)c2c1
GI50 [1]: 597 nM | TGI [1]: 6780 nM | GI50 [2]: 397 nM | TGI [2]: 1770 nM | GI50 [3]: 352 nM | TGI [3]: 4840 nM | GI50 [4]: 356 nM | TGI [4]: 4330 nM | GI50 [5]: 404 nM | TGI [5]: 3750 nM | GI50 [6]: 932 nM | TGI [6]: 3720 nM | GI50 [7]: 624 nM | TGI [7]: 2770 nM | GI50 [8]: 406 nM | TGI [8]: 2730 nM | GI50 [9]: 533 nM | TGI [9]: 7700 nM | GI50 [10]: 328 nM | TGI [10]: 1680 nM

O=c1cc(-c2ccccc2)oc2ccc(Cl)cc12
TGI [1]: > 100000 nM | TGI [2]: > 85700 nM | TGI [3]: > 100000 nM | TGI [4]: > 96200 nM | TGI [5]: > 80100 nM | TGI [6]: > 31600 nM | TGI [7]: > 100000 nM | TGI [8]: > 100000 nM | TGI [9]: > 100000 nM | TGI [10]: > 88800 nM

NNc1c(C(N)=O)c2c(N)ncnc2n1C1OC(CO)C(O)C1O (stereo not drawn)
GI50 [1]: < 14.6 nM | TGI [1]: < 48.3 nM and 120 nM | GI50 [2]: < 10 nM | TGI [2]: 55.2 nM and 34.2 nM | GI50 [3]: < 10 nM | GI50 [4]: 19.9 nM | TGI [4]: 16300 nM and > 100000 nM | GI50 [5]: 34.9 nM | TGI [5]: 130 nM and 1200 nM | GI50 [6]: 86 nM | TGI [6]: 491 nM and 2230 nM | GI50 [7]: 17.6 nM and 21.9 nM | TGI [7]: 400 nM and 335 nM | GI50 [8]: 40.4 nM and 36.4 nM | TGI [8]: 221 nM and 143 nM | GI50 [9]: 19 nM and 44.3 nM | TGI [9]: 174 nM and 580 nM | GI50 [10]: < 14.3 nM and 24.6 nM | TGI [10]: 95.9 nM and 454 nM

Cc1cc(NC(=O)NCc2ccc(N3C(N)=NC(N)=NC3(C)C)cc2)ccc1S(=O)(=O)F
GI50 [1]: 815 nM | TGI [1]: > 100000 nM | GI50 [2]: 2770 nM | TGI [2]: > 100000 nM | GI50 [3]: 429 nM | TGI [3]: > 100000 nM | GI50 [4]: 484 nM | TGI [4]: > 100000 nM | GI50 [5]: 824 nM | TGI [5]: > 100000 nM | GI50 [6]: > 62200 nM | TGI [6]: > 100000 nM | GI50 [7]: 8400 nM | TGI [7]: > 81900 nM | GI50 [8]: 4550 nM | TGI [8]: > 100000 nM | GI50 [9]: 833 nM | TGI [9]: > 100000 nM | GI50 [10]: > 100000 nM | TGI [10]: > 100000 nM

Cc1ccc(-c2nc(NCCOCCOCCN)nc(N3CCN(c4ccccn4)CC3)n2)cc1
GI50 [1]: 14100 nM | TGI [1]: 37100 nM | GI50 [2]: 6890 nM | TGI [2]: 14200 nM | GI50 [3]: 10000 nM | TGI [3]: 27800 nM | GI50 [4]: 9180 nM | TGI [4]: 24600 nM | GI50 [5]: 8820 nM | TGI [5]: 25900 nM | GI50 [6]: 14100 nM | TGI [6]: 29800 nM | GI50 [7]: 16900 nM | TGI [7]: 31200 nM | GI50 [8]: 10600 nM | TGI [8]: 32800 nM | GI50 [9]: 14000 nM | TGI [9]: 29500 nM | GI50 [10]: 13300 nM | TGI [10]: 29900 nM

CCn1c(-c2nonc2N)nc2ccccc21
GI50 [1]: > 25000 nM | TGI [1]: > 25000 nM | GI50 [2]: > 25000 nM | TGI [2]: > 25000 nM | GI50 [3]: > 25000 nM | TGI [3]: > 25000 nM | GI50 [4]: > 25000 nM | TGI [4]: > 25000 nM | GI50 [5]: > 25000 nM | TGI [5]: > 25000 nM | GI50 [6]: > 25000 nM | TGI [6]: > 25000 nM | GI50 [7]: > 25000 nM | TGI [7]: > 25000 nM | GI50 [8]: > 25000 nM | TGI [8]: > 25000 nM | GI50 [9]: > 25000 nM | TGI [9]: > 25000 nM | GI50 [10]: > 25000 nM | TGI [10]: > 25000 nM

Clc1ccc2c(NCCNc3nc(N4CCOCC4)nc4ccccc34)ccnc2c1
GI50 [1]: 1670 nM | TGI [1]: 11700 nM | GI50 [2]: 2020 nM | TGI [2]: 4460 nM | GI50 [3]: 1660 nM | TGI [3]: 3300 nM | GI50 [4]: 892 nM | TGI [4]: 13100 nM | GI50 [5]: 1800 nM | TGI [5]: 3450 nM | GI50 [6]: 1560 nM | TGI [6]: 3630 nM | GI50 [7]: 1840 nM | TGI [7]: 3530 nM | GI50 [8]: 1720 nM | TGI [8]: 5170 nM | GI50 [9]: 2750 nM | TGI [9]: 7690 nM | GI50 [10]: 1340 nM | TGI [10]: 2680 nM

COc1ccc(-c2nsc3c2NC(=O)CC3c2ccsc2)cc1 (stereo not drawn)
GI50 [1]: 268 nM | TGI [1]: > 100000 nM | GI50 [2]: 110 nM | TGI [2]: 846 nM | GI50 [3]: 126 nM | TGI [3]: > 100000 nM | GI50 [4]: 46.9 nM | TGI [4]: > 100000 nM | GI50 [5]: 422 nM | TGI [5]: > 100000 nM | GI50 [6]: 1260 nM | TGI [6]: > 100000 nM | GI50 [7]: 211 nM | TGI [7]: 611 nM | GI50 [8]: 279 nM | TGI [8]: 21000 nM | GI50 [9]: 830 nM | TGI [9]: > 100000 nM | GI50 [10]: 1840 nM | TGI [10]: > 100000 nM

CC(C)(O)C1COC2=C1C(=O)c1ccccc1C2=O (stereo not drawn)
TGI [1]: > 100000 nM | TGI [2]: > 100000 nM | TGI [3]: 66900 nM | TGI [4]: > 100000 nM | TGI [5]: 41900 nM | TGI [6]: > 100000 nM | TGI [7]: 57800 nM | TGI [8]: > 100000 nM | TGI [9]: 77800 nM | TGI [10]: > 100000 nM
